Assay [1] has as its system Hydrilla (HYLLI). The assay is described as follows: Control of hydrilla: aboveground dry weight after exposure to Compounds 1 and 2 (14 L cylinders). In kind it is in vivo, Hydrilla verticillata (L.f.) Royle. As to conditions: final aboveground dry weight, SC formulation, untreated 2.48. The method, then:
Apical sections of hydrilla (HYLLI) were planted in potting soil amended with Osmocote® fertilizer in small pots (13.5 cm length×3.75 cm diameter). A 2.54 cm sand layer was placed over the top of the potting soil. The pots containing hydrilla were placed into 14 L acrylic cylinders filled with well water and allowed to establish slight growth prior to treatment. Cylinders were then treated with Compound 1 (halauxifen-methyl 96 grams acid equivalent per liter (g ae/L) Suspension Concentrate (SC)) or Compound 2 (benzyl 4-amino-3-chloro-5-fluoro-6-(4-chloro-2-fluoro-3-methoxyphenyl)pyridine-2-carboxylate (125 grams active ingredient per liter (g ai/L) SC)) at 50, 100 and 200 parts per billion (ppb). All treatments were replicated 4 times. […]

The subject of assay [2] is Eurasian Watermilfoil (MYPSP). As to the kind of experiment: Control of Eurasian watermilfoil: aboveground dry weight after exposure to Compound 1. In kind it is in vivo, Myriophyllum spicatum L. The following applies: thirty days following a 24-hour exposure, untreated 1.257. From the text:
(§1) Apical sections (12 to 15 cm in length) of Eurasian watermilfoil (MYPSP) and curlyleaf pondweed (PTMCR) were planted into small pots (13.5 cm length×3.75 cm diameter) containing topsoil amended with 14-14-14 slow release Osmocote® fertilizer (˜2.5 g Osmocote/kg soil). Approximately 5 to 7 cm of the apical section extended above the sediment at planting, and a sand cap was placed over the potting soil (˜2 cm deep). Plants were then transferred to 12 L acrylic tanks filled with well water. Plants were allowed to grow for 7 d before the treatment was initiated in triple replicate. […] At harvest, plants were rinsed free of algae, roots and shoots were separated and placed in paper sacks in a drying oven for 4 days at 70° C. temperature, and dry weights were measured and compared to an untreated control treatment (Table 3).

The test system of assay [3] is Curlyleaf Pondweed (PTMCR). The assay is described as follows: Control of curlyleaf pondweed: aboveground dry weight after exposure to Compound 1. As to conditions: thirty days following a 24-hour exposure, untreated 0.087. It is filed as in vivo, Potamogeton crispus L.
From the text: as §1

Assay [4] has as its system Hydrilla (HYLLI). The assay is described as follows: Control of hydrilla: aboveground dry weight after submersed exposure (12 L tanks). In kind it is in vivo, Hydrilla verticillata (L.f.) Royle. The following applies: final aboveground dry weight, thirty-three days following submersed exposure, untreated 1.047. An excerpt: Apical sections (12 to 15 centimeters (cm) in length) of hydrilla (HYLLI) were planted into small pots (13.5 cm length×3.75 cm diameter) containing topsoil amended with 14-14-14 slow release Osmocote® fertilizer (˜2.5 grams (g) Osmocote per kilogram (kg) soil). Approximately 5 to 7 cm of the apical section extended above the sediment at planting, and a sand cap was placed over the potting soil (˜2 cm deep). Plants were then transferred to 12 liter (L) acrylic tanks filled with well water. Tanks were maintained in a growth room with a 14:10 hour (h) photoperiod at 26° C. (±2° C.). Plants were allowed to grow for 17 days (d) before the treatments were initiated in triple replicate. Plants were treated with Compound 1 (halauxifen-methyl) at 0, 10, 100, 1000 parts per billion (ppb) with three replicates each. Treatments were only applied once. Plants were harvested at 33 d after initial treatment. At harvest, plants were rinsed free of algae and placed in paper sacks in a drying oven for 2 d at 70° C. temperature. Mean dry weights were determined and means separated using least significant differences (Table 1).

This note sets out measurements from patent US20150218099A1, “METHODS FOR CONTROL OF AQUATIC WEEDS USING HERBICIDAL 4-AMINO-3-CHLORO-6-(4-CHLORO-2-FLUORO-3-METHOXYPHENYL)PYRIDINE-2-CARBOXYLIC ACIDS” (Dow AgroSciences LLC, priority 2014, published 2015).

The structures appear in SMILES notation.

In the case of `COC(=O)c1nc(-c2ccc(Cl)c(OC)c2F)cc(N)c1Cl` [Compound 1, methyl 4-amino-3-chloro-6-(4-chloro-2-fluoro-3-methoxyphenyl)pyridine-2-carboxylate], the “Dry Weight (grams) of HYLLI” value in assay [1] (50 ppb) turned out to be 0.02 b grams; in assay [1] (100 ppb), 0.64 ab grams; in assay [1] (200 ppb), 0 b grams; in assay [4] (10 ppb) it was 0.02 b grams; in assay [4] (100 ppb), 0.003 ab grams; in assay [4] (1000 ppb), 0 b grams. Besides, the “Dry Weight (grams) of MYPSP” value in assay [2] (5 ppb), in assay [2] (10 ppb), in assay [2] (50 ppb) and in assay [2] (100 ppb) was 0.000 b grams each time. In addition, the “Dry Weight (grams) of PTMCR” value in assay [3] (5 ppb) is on record as 0.117 a grams; in assay [3] (10 ppb), 0.043 ab grams; in assay [3] (50 ppb), 0.000 b grams; in assay [3] (100 ppb) it was 0.000 b grams.
Take `COc1c(Cl)ccc(-c2nc(C(=O)OCc3ccccc3)c(Cl)c(N)c2F)c1F` [Compound 2, benzyl 4-amino-3-chloro-5-fluoro-6-(4-chloro-2-fluoro-3-methoxyphenyl)pyridine-2-carboxylate]: the “Dry Weight (grams) of HYLLI” value in assay [1] (50 ppb), in assay [1] (100 ppb) and in assay [1] (200 ppb) was 0 b grams throughout.
